Measured values published in US20140357577A1, “HIV Membrane Fusion Inhibitors” (priority 2011, published 2014).
Starred links: 1 amine or outer side, 2 acyl side, 3 side chain; linkers in the order of their positions; H or OH if unused. Non-standard residues stand in square brackets, D forms with d. No end group written: not given here. *: point of attachment. C(Bzl) = O=C([C@H](CSCc1ccccc1)N[*:1])[*:2]; tBuAla = CC(C)(C)C[C@H](N)C(=O)O; Suc = O=C(CCC(=O)[*:2])[*:1]; Isovaleryl = CC(C)CC(=O)*; hCys = N[C@@H](CCS)C(=O)O; Nva = CCC[C@H](N)C(=O)O; Tba = not defined here

Tests used:
[1] = tested on: HIV mutant virus strain HXB2D with mutation V38A in the gp41 gene; experiment: Standard AVE, HXB2D site directed mutant V38A; type: cell-based, HIV-1; details: fold change vs wild type strain HXB2D
Excerpt: • Standard Anti-Viral-Experiment “AVE” (wild type HIV strain IIIB+HIV strain HXB2D side directed mutants V38A and Q40H)
The HIV-1 replication assay measures virus replication (HIV wild type virus strain 111B or HXB2D, or a HIV mutant virus strain HXB2D with mutation V38A or Q40H in the gp41 gene) as an induction of enhanced green fluorescent protein (EGFP) expression. The indicator MT4-LTR-EGFP cells contain an EGFP gene under the control of the HIV-1 LTR promoter sequence. Successful HIV-1 infection results in viral Tat protein expression and subsequent induction of EGFP expression. Compounds/peptides inhibiting HIV-1 infection are expected to reduce EGFP expression as compared to the untreated HIV-infected control.
Serial 4-fold dilutions of test compounds/peptides were mixed with HIV-1 (IIIB, HXB2D, or a HXB2D mutant virus (V38A or Q40H)) and MT4-LTR-EGFP cells and incubated at 37° C. After 3 days, the wells were examined for EGFP expression using an argon laser-scanning microscope. The effective compound/peptide concentration inhibiting 50% of the virus-induced EGFP signal (EC50) was determined by linear interpolation of the EGFP signal vs. logarithm of the compound concentration; (T20, C34 and Sifuvirtide were added as reference compounds). For the V38A and Q40H mutant viruses, results were reported as a fold change in EC50, as compared with a drug-susceptible wild type strain HXB2D, which forms the backbone of the mutant virus. • Standard AVE (50% Human Serum)

[2] = tested on: HIV mutant virus strain HXB2D with mutation Q40H in the gp41 gene; experiment: Standard AVE, HXB2D site directed mutant Q40H; type: cell-based, HIV-1; details: fold change vs wild type strain HXB2D
Method in brief: (§1)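 MT4-LTR-EGFP cells infected with HIV-1 IIIB, HXB2D or HXB2D gp41 mutants V38A/Q40H alongside serial 4-fold compound dilutions, 3 days at 37° C. EGFP read by laser-scanning microscopy; EC50 by linear interpolation against log concentration. Mutant results given as fold change in EC50 versus wild-type HXB2D.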

HIV-IIIB + 50% HS = experiment: Standard AVE (50% Human Serum), HIV-1 replication assay in MT4-LTR-EGFP cells; type: cell-based; details: fold change vs EC50 in the assay without human serum
Method in brief: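 MT4-LTR-EGFP cells infected with HIV-1 alongside 4-fold serial compound dilutions in 50% human serum, 3 days at 37 °C. EGFP read by laser-scanning microscopy; EC50 by linear interpolation against log concentration, reported as fold change versus EC50 without serum.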

[3] = tested on: HIV wild type virus strain IIIB; experiment: Standard Anti-Viral-Experiment (AVE), HIV-1 replication assay in MT4-LTR-EGFP cells, wild type IIIB; type: cell-based; details: 3 days, EGFP signal
Method in brief: as §1

[4] = molecular target: gp41 of HIV-1 strain HXB2D with mutation Q40H (HIV-1 strain HXB2D) (UniProt P04578)
[5] = molecular target: gp41 of HIV-1 wild type strain IIIB (HIV-1 strain IIIB)

Molecule	HIV-HXB2D V38A mutant (fold change in EC50) [1]	HIV-HXB2D Q40H mutant (fold change in EC50) [2]	HIV-IIIB + 50% HS (Fold change in EC50) (HIV-IIIB + 50% HS)	EC50 [3]	fold change in EC50, HIV-HXB2D Q40H mutant [4]	EC50 of HIV-IIIB replication (EGFP) [5]	fold change in EC50, HIV-IIIB + 50% HS [5]
Ac-A[hCys]YAA[hCys]IEALIRKAQEQQEKNEAALR-NH2 (cysteine pairing not given here) [Peptide 80]	40	375	2	2 nM	–	–	–
C34 (peptide)	–	–	–	–	8.8 fold	266 nM	0.8 fold
Isovaleryl-E-C(Bzl)-YLALIEELIRKAQEQQEKNEAALR-NH2 ({Isovaleryl-Glu-C(Bzl)}-YLALIEELIRKAQEQQEKNEAALR-NH2; SMILES CC[C@H](C)[C@H](NC(=O)[C@H](CC(C)C)NC(=O)[C@H](C)NC(=O)[C@H](CC(C)C)NC(=O)[C@H](Cc1ccc(O)cc1)NC(=O)[C@H](CSCc1ccccc1)NC(=O)[C@H](CCC(=O)O)NC(=O)CC(C)C)C(=O)N[C@@H](CCC(=O)O)C(=O)N[C@@H](CCC(=O)O)C(=O)N[C@@H](CC(C)C)C(=O)N[C@H](C(=O)N[C@@H](CCCNC(=N)N)C(=O)N[C@@H](CCCCN)C(=O)N[C@@H](C)C(=O)N[C@@H](CCC(N)=O)C(=O)N[C@@H](CCC(=O)O)C(=O)N[C@@H](CCC(N)=O)C(=O)N[C@@H](CCC(N)=O)C(=O)N[C@@H](CCC(=O)O)C(=O)N[C@@H](CCCCN)C(=O)N[C@@H](CC(N)=O)C(=O)N[C@@H](CCC(=O)O)C(=O)N[C@@H](C)C(=O)N[C@@H](C)C(=O)N[C@@H](CC(C)C)C(=O)N[C@@H](CCCNC(=N)N)C(N)=O)[C@@H](C)CC) [Peptide 18]	3	53	3	1 nM	–	–	–
Sifuvirtide (peptide)	–	–	–	–	2 fold	2 nM	1 fold
Sifuvirtide-PBD (peptide)	–	–	–	–	> 3 fold	36400 nM	0.8 fold
Suc-ACY-Nva-ACIEALIRAAQEQQEKNEAALR-NH2 [Peptide 44]	15	160	1	2 nM	–	–	–
Suc-ACYLAC)EELIRKAQEQQEKNEAALR-NH2 [Peptide 31]	14	238	0.4	1 nM	–	–	–
Suc-ACYLACIEALIRA-Abu-QEQQEKNEAALR-NH2 [Peptide 47]	17	261	2	1 nM	–	–	–
Suc-ACYLACIEALIRA[Nva]QEQQEKNEAALR-NH2 (cysteine pairing not given here) [Peptide 46]	6	42	2	1 nM	–	–	–
Suc-ANYLALIEAL-Tba-RAAQEQQEKNEAALR-NH2 (reading uncertain; also: chains 1 and 2 are one peptide joined through Tba residue, printed as Suc-ANYLALIEAL-Tba-RAAQEQQEKNEAALR-NH2) [Peptide 11]	26	368	0.8	1 nM	–	–	–
Suc-CYLACIEELIRKAGEQQEKNEAAL-Tba-NH2 (Suc-CYLACIEELIRKAGEQQEKNEAAL-{Tba-NH2}; cysteine pairing not given here; reading uncertain; also: printed as Suc-CYLACIEELIRKAGEQQEKNEAAL-Tba-NH2) [Peptide 25]	31	352	3	0.6 nM	–	–	–
Suc-CYLACIEELIRKAQEQQEKNEAAL-Tba-NH2 [23] (Suc-CYLACIEELIRKAQEQQEKNEAAL-{Tba-NH2}; cysteine pairing not given here; reading uncertain; also: printed as Suc-CYLACIEELIRKAQEQQEKNEAAL-Tba-NH2) [Peptide 23]	45	807	0.6	1 nM	–	–	–
Suc-CYLACIEELIRKAQEQQEKNEAAL-Tba-NH2 [24] (Suc-CYLACIEELIRKAQEQQEKNEAAL-{Tba-NH2}; cysteine pairing not given here; reading uncertain; also: printed as Suc-CYLACIEELIRKAQEQQEKNEAAL-Tba-NH2) [Peptide 24]	26	321	1	1 nM	–	–	–
Suc-CYLACIEELIRKAQEQQEKNEAAL-Tba-NH2 [27] (Suc-CYLACIEELIRKAQEQQEKNEAAL[tBuAla]-NH2; cysteine pairing not given here) [Peptide 27]	28	307	0.7	3 nM	–	–	–
Suc-Hcy-YLA-Hcy-IEALIRAAREQQEKNEALLR-NH2 (Suc-[hCys]YLA[hCys]IEALIRAAREQQEKNEALLR-NH2; also: cyclised, bridge not given here) [Peptide 28]	4	25	4	0.6 nM	–	–	–
T20 (peptide)	–	–	–	–	49.7 fold	17 nM	3.9 fold
Ac-NNYTSLIHSLIEESQNQQEKNEQELL-NH2 [C34-PBD*]	–	–	–	–	–	> 49200 nM	–
